Data taken from ChEMBL document CHEMBL5532741, “Novel 2,4-Dichloro-5-sulfamoylbenzoic Acid Oxime Esters: First Studies as Potential Human Carbonic Anhydrase Inhibitors” (ACS Med Chem Lett, 2024).
Activity calls are given as the source filed them. The calls are words filed in the database; no cut-off is given here.

Experiments:
MDA-MB-231 [1] = experiment: Antiproliferative activity against human MDA-MB-231 cells measured after 72 hrs by cell counting kit 8 method; format: functional, cell-based; settings: MDA-MB-231, 72 h
MDA-MB-231 [2] = experiment: Antiproliferative activity against human MDA-MB-231 cells at high concentration measured after 72 hrs by cell counting kit 8 method; format: functional, cell-based
Homo sapiens [3] = species on record: Homo sapiens; experiment: Selectivity index, ratio of Ki for recombinant human CA9 to Ki for recombinant human CA2
Homo sapiens [4] = species on record: Homo sapiens; experiment: Selectivity index, ratio of Ki for recombinant human CA12 to Ki for recombinant human CA2

| IC50 (MDA-MB-231 [1]) [µM] | Compound | other results |
| --- | --- | --- |
| 18.2 | NS(=O)(=O)c1ccc(NC(=O)Nc2ccc(F)cc2)cc1 [SLC-0111] |  |
|  | NS(=O)(=O)c1cc(C(=O)O/N=C/c2ccccc2)c(Cl)cc1Cl | Activity (MDA-MB-231 [2]): inactive |
|  | NS(=O)(=O)c1cc(C(=O)O)c(Cl)cc1Cl | Ratio Ki (Homo sapiens [3]): 7.9; Ratio Ki (Homo sapiens [4]): 22.7 |
| 108 | COc1cccc(OC)c1/C=N/OC(=O)c1cc(S(N)(=O)=O)c(Cl)cc1Cl |  |
| 113 | COc1ccc(/C=N/OC(=O)c2cc(S(N)(=O)=O)c(Cl)cc2Cl)c(OC)c1OC |  |
